In patent publication US20210024985A1, “Devices and Methods Useful for Imaging Transient and Rare Mechanical Events in Cells” (Emory University, priority 2019, published 2021):
Where two headings read alike, the source gives them in different places. Each block holds one molecule with its values, some of them ahead of it.

Legend:
[1] = system: TCR; conditions: independent of CD8, cited from earlier work
[2] = system: TCR; assay: TCR tension imaging of naïve OT-1 cells in real-time and locked state (mechanical sampling and scanning); assay type: cell-based
Procedure: Mechano-locking enhances TCR-pMHC tension signals by accumulating pulling events that are >4.7 pN. The degree of enhancement and dynamics were evaluated. OT-1 T cells were allowed to engage real-time tension probes and then incubated with unlabeled locking strand (200 nM). The unlabeled locking strand was beneficial here because it eliminated bleed-through from the Atto647N tag. Additionally, avoiding the rinsing steps accelerates the experiments and reduces perturbation of cells.
A time course for TCR-N4 pMHC tension signal accumulation for three cells upon addition of the locking strand was imaged. […] Tension occupancy, which is the fraction of the cell contact area showing tension signal, reached 91% in 10 min. The tension occupancy is an indication of the area that is mechanically scanned by the TCR with F >4.7 pN in search for antigen.
T cells mechanically sample their cognate and near cognate ligands over time. […]
The signal accumulation levels differed when cells were presented with antibody, cognate pMHC, and altered peptide ligands. To quantify these differences on a per cell basis, two parameters were defined: the mechanical sampling factor, which is the fold enhancement in integrated tension signal; and the mechanical scanning factor, which reflects the fold increase in tension occupancy (FIG. 3B). […]

[3] = system: MTFM hairpin tension probe (stem-loop DNA hairpin); assay: Hybridization of locking strand to folded MTFM probe versus unstructured single stranded DNA on model surfaces; assay type: binding
Procedure: Fluorescence measurements of in-situ hybridization kinetics between the immobilized MTFM probes and the locking oligonucleotides at 200 nM. Locking oligonucleotides were added to surfaces presenting the MTFM tension probes at room temperature and allowed to bind to the hairpin for >1 h. Hybridization was monitored by the increase in fluorescence due to hairpin opening.
The selectivity of lock strand binding to unfolded hairpins over folded ones was measured by using model surfaces that either presented a folded MTFM probe or an unstructured single stranded DNA sequence. The unstructured sequence included a complementary region to the 17mer, thus providing a model for the opened state of the MTFM hairpin probes.
Conversely, mechanical stretching of DNA with large values of tension is expected to hinder hybridization. This is because forming the B-form duplex becomes less energetically favorable. Indeed, when F≈40 pN for a 24mer, this created a barrier to hybridization. […] Given that TCR forces are below 19 pN, estimates of mechano-selectivity are justified here.
Based on these criteria, five different locking oligonucleotides were designed that ranged in length from 25mer to 13mer to screen (FIG. 7A). Gold nanoparticle MTFM tension probe surfaces were prepared (FIG. 9). […] The locking oligonucleotides were tested. The 17mer has the most desirable properties (FIG. 7C). To estimate mechano-selectivity, the differential binding of locking strand to MTFM probe at rest to that of an unstructured sequence (mimicking opened state of MTFM probe) were compared.

[4] = system: MTFM tension probes opened by naïve OT-1 T cells; assay: Locking/unlocking of tension probes presenting antiCD3ε in live naïve OT-1 T cells; assay type: cell-based; conditions: 200 nM unlocking strand
Procedure: The mechanically opened probes were locked with 200 nM locking strand over 10 min. After rinsing away excess locking strand, the unlocking strand was added at a final concentration of 200 nM, and the tension signal for the same cells was measured as a function of time.
To test locking/unlocking the oligonucleotide complexes in live cells, naïve OT-1 T cells were allowed to adhere and spread on MTFM probe surfaces presenting antiCD3ε antibodies. Cells generated tension signal as the TCR engaged the antibody and transmitted forces to the probes. Subsequently, the Atto647N-tagged locking strand was added for 10 min, washed, and the same T cells were imaged, confirming binding. […] Significant co-localization between the Cy3B (hairpin opening) and the Atto647N (locking strand) signals was found, as evident from linescan analysis and the Pearson's correlation coefficient of 0.72±0.096 (n=20 cells). The excess locking strand was rinsed away before re-imaging. “Erasing” the stored cellular mechanical information was tested. This process was triggered by adding 200 nM unlocking strand to the sample for 2-3 min and confirmed by imaging the same group of T cells. The unlocking process was rapid and reached completion within 60 s. Control experiments using tension probes with a scrambled stem-loop confirmed the specificity of locking real-time tension. […]

[5] = target: OT-1 T-cell receptor (TCR) on OT-1 CD8+ T cells; assay: cell-based or functional assay

Molecule: N4: antigenic pMHC, peptide SIINFEKL (SEQ ID NO: 22), OT-1 TCR antigen derived from chicken ovalbumin
- average bond lifetime ([1]; at 10 pN): 800 ms
- average bond lifetime ([1]; at zero force): 100 ms
- enhancement of the integrated tension signal per cell ([2]; 200 nM unlabeled locking strand, n=16 cells): approximately 189 fold
- tension occupancy ([2]; in 10 min after locking strand, F >4.7 pN): 91%

Molecule: locking strand: 17mer locking oligonucleotide GAAAAAAACATTTATAC (SEQ ID NO: 6) that hybridizes to mechanically unfolded hairpin; 8 nt toehold at 3′ end for unlocking (listed as DNA, chemistry not fully specified)
- mechano-selectivity: differential binding to MTFM probe at rest vs unstructured sequence [3]: greater than two orders of magnitude
- hybridization to the MTFM probes among locking oligonucleotides 13mer to 25mer ([3]; 200 nM, room temperature, >1 h): optimal hybridization
- hybridization to the closed hairpin tension probe, incubation without saturation ([3]; closed hairpin tension probe): > 8 h
- difference in binding rates (lock binding selectivity between mechanically unfolded and folded probes) ([3]; pseudo first-order kinetics, one-phase association fit, unstructured sequence vs folded MTFM probe): 487 fold
- hybridization to the unstructured sequence, time to saturation ([3]; unstructured ssDNA with region complementary to the 17mer): saturated in seconds

Molecule: unlocking strand: strand (SEQ ID NO: 20) that triggers toehold-mediated strand displacement releasing the locking strand (DNA TAGGTAGGGTATAAAATGTTTTTTC; listed as DNA, chemistry not given here)
- time to completion of unlocking [4]: ≤ 60 s

- mechanical sampling factor [5]: 66 fold
Molecule: SIIQFEKL (peptide-MHC, part only; not given: MHC molecule, part only) [pMHC Q4 (SIIXFEKL, SEQ ID NO: 23, X=Q)]

- mechanical sampling factor [5]: 10 fold
Molecule: SIIGFEKL (peptide-MHC, part only; not given: MHC molecule, part only) [mutant pMHC G4 (SIIGFEKL, SEQ ID NO: 24)]

- enhancement of the integrated N4 tension signal per cell after locking [5]: 189 fold
- force transmitted (hairpin probe threshold) [5]: > 4.7 pN
- fraction of antigen mechanically scanned over initial contact area within 10 min migration (ICAM-1/pMHC N4 surface) [5]: 81%
- mechanical sampling factor [5]: 165 fold
- tension occupancy [5]: 91%
Molecule: SIINFEKL (peptide-MHC, part only; not given: MHC molecule, part only) [antigenic N4 pMHC (peptide SIINFEKL, SEQ ID NO: 22)]

- mechanical sampling factor [5]: 33 fold
Molecule: SIIVFEKL (peptide-MHC, part only; not given: MHC molecule, part only) [pMHC V4 (SIIXFEKL, SEQ ID NO: 23, X=V)]
